Values joined by “and” are separate entries in the source; they are usually repeats but may differ in a detail not shown here. Equal values may be shown once. One block for each molecule: values may come before it.
What was measured:
Test in all cases: Whole blood assay, LPS stimulation, MSD cytokine detection
TNF-α = format: cell-based; conditions: fresh whole bovine blood
Procedure: (§1) Compounds of the invention were evaluated against a positive control for their ability to inhibit LPS-induced IL-1p and TNF-α as an overall evaluation of relative potency and modulation of target pathways.
(§2) In the bovine whole blood in vitro screening assay the inhibition of TNFα as induced by stimulation by lipopolysaccharide (LPS) and as measured by half the maximal inhibitory concentration (IC50) is recognized as the primary biomarker of immunomodulation potency upon pretreatment with the compounds of the invention. IL-1β is a mediator of the inflammation response and is involved in a number of cellular activities including proliferation, differentiation and apoptosis. IL-1β is also released upon cellular stress or cytotoxicity or upon TLR stimulation. In the bovine whole blood assay the stimulation of IL-1β release upon increasing concentration of test compound is seen as a potential cellular toxicity signal as induced by the test compound. In order to estimate a therapeutic index from the in vitro assay a differential between the TNFα IC50 (immunomodulation potency) versus the perceived cellular toxicity concentration (IL-1β release or overstimulation) was utilized. […] As the in vitro assay index approaches 1 it is proposed that the balance between immunomodulation and cytotoxicity would be too narrow in order to achieve an efficacious dose in vivo.

IL-1β = format: cell-based, bovine; conditions: fresh whole bovine blood, LPS stimulation; drug concentration giving overstimulation (OS) of IL-1β
Procedure: as §1, §2

IL-6 = format: cell-based; conditions: fresh whole bovine blood

Structure (SMILES): CC[C@H]1OC(=O)[C@H](C)[C@@H](O[C@H]2C[C@@](C)(OC)[C@@H](O)[C@H](C)O2)[C@H](C)[C@@H](O[C@@H]2O[C@H](C)C[C@H](N(C)C)[C@H]2Oc2ccc(F)cc2)[C@](C)(O)C[C@@H](C)CN(C)[C@H](C)[C@@H](O)[C@]1(C)O [Example A-23]
IC50 (TNF-α): 5 µM | IL-1ß OS of LPS (IL-1β): 6 µM | IC50 (IL-6): 50 µM

Structure (SMILES): CC[C@H]1OC(=O)[C@H](C)[C@@H](O[C@H]2C[C@@](C)(OC)[C@@H](O)[C@H](C)O2)[C@H](C)[C@@H](O[C@@H]2O[C@H](C)C[C@H](N(C)C)[C@H]2Oc2ccc3ccncc3c2)[C@](C)(O)C[C@@H](C)CN(C)[C@H](C)[C@@H](O)[C@]1(C)O [Example A-24]
IC50 (TNF-α): 19 µM | IL-1ß OS of LPS (IL-1β): 40 µM | IC50 (IL-6): 24 µM

Structure (SMILES): CC[C@H]1OC(=O)[C@H](C)[C@@H](O[C@H]2C[C@@](C)(OC)[C@@H](O)[C@H](C)O2)[C@H](C)[C@@H](O[C@@H]2O[C@H](C)C[C@H](N(C)C)[C@H]2Oc2ccc(F)c(C#N)c2)[C@](C)(O)C[C@@H](C)CN(C)[C@H](C)[C@@H](O)[C@]1(C)O [Example A-25]
IC50 (TNF-α): 3 µM | IL-1ß OS of LPS (IL-1β): 16 µM | IC50 (IL-6): 12 µM

Structure (SMILES): CC[C@H]1OC(=O)[C@H](C)[C@@H](O[C@H]2C[C@@](C)(OC)[C@@H](O)[C@H](C)O2)[C@H](C)[C@@H](O[C@@H]2O[C@H](C)C[C@H](N(C)C)[C@H]2Oc2cnc3ccccc3c2)[C@](C)(O)C[C@@H](C)CN(C)[C@H](C)[C@@H](O)[C@]1(C)O [Example A-28]
IC50 (TNF-α): 3 µM | IL-1ß OS of LPS (IL-1β): 16 µM | IC50 (IL-6): 11 µM

Structure (SMILES): CC[C@H]1OC(=O)[C@H](C)[C@@H](O[C@H]2C[C@@](C)(OC)[C@@H](O)[C@H](C)O2)[C@H](C)[C@@H](O[C@@H]2O[C@H](C)C[C@H](NC)[C@H]2Oc2cnc(Cl)cc2C)[C@](C)(O)C[C@@H](C)CN(C)[C@H](C)[C@@H](O)[C@]1(C)O [Example A-29]
IC50 (TNF-α): 7 µM | IL-1ß OS of LPS (IL-1β): 10 µM | IC50 (IL-6): 9 µM

Structure (SMILES): CC[C@H]1OC(=O)[C@H](C)[C@@H](O[C@H]2C[C@@](C)(OC)[C@@H](O)[C@H](C)O2)[C@H](C)[C@@H](O[C@@H]2O[C@H](C)C[C@H](NC)[C@H]2Oc2ccc(OC)c(OC(C)C)c2)[C@](C)(O)C[C@@H](C)CN(C)[C@H](C)[C@@H](O)[C@]1(C)O [Example A-34]
IC50 (TNF-α): 4 µM | IL-1ß OS of LPS (IL-1β): >250 µM | IC50 (IL-6): 21 µM

Structure (SMILES): CC[C@H]1OC(=O)[C@H](C)[C@@H](O[C@H]2C[C@@](C)(OC)[C@@H](O)[C@H](C)O2)[C@H](C)[C@@H](O[C@@H]2O[C@H](C)C[C@H](N(C)C)[C@H]2Oc2cc(OC)ccc2OC)[C@](C)(O)C[C@@H](C)CN(C)[C@H](C)[C@@H](O)[C@]1(C)O [Example A-35]
IC50 (TNF-α): 4 µM | IL-1ß OS of LPS (IL-1β): 40 µM | IC50 (IL-6): 11 µM

Structure (SMILES): CC[C@H]1OC(=O)[C@H](C)[C@@H](O[C@H]2C[C@@](C)(OC)[C@@H](O)[C@H](C)O2)[C@H](C)[C@@H](O[C@@H]2O[C@H](C)C[C@H](NC)[C@H]2Oc2ccccc2C#N)[C@](C)(O)C[C@@H](C)CN(C)[C@H](C)[C@@H](O)[C@]1(C)O [Example A-36]
IC50 (TNF-α): 13 µM | IL-1ß OS of LPS (IL-1β): 100 µM | IC50 (IL-6): 13 µM

The next lines start with results.

IC50 (TNF-α): 22 µM
Structure (SMILES): CC[C@H]1OC(=O)[C@H](C)[C@@H](O)[C@H](C)[C@@H](O[C@@H]2O[C@H](C)C[C@H](N(C)C(=O)N(C)c3ccccc3)[C@H]2Oc2ccc(F)c(C(F)(F)F)c2)[C@](C)(O)C[C@@H](C)CN(C)[C@H](C)[C@@H](O)[C@]1(C)O [Example C-10]
IL-1ß OS of LPS (IL-1β): 40 µM

IC50 (TNF-α): 30 µM
Structure (SMILES): CCCNC[C@]1(O)[C@H](C)O[C@@H](O[C@H]2[C@H](C)[C@@H](O[C@@H]3O[C@H](C)C[C@H](NC)[C@H]3Oc3ccc(OC)c(F)c3)[C@](C)(O)C[C@@H](C)CN[C@H](C)[C@@H](O)[C@](C)(O)[C@@H](CC)OC(=O)[C@@H]2C)C[C@@]1(C)OC [Example E-10]
IL-1ß OS of LPS (IL-1β): 40 µM

IC50 (TNF-α): 70 µM
Structure (SMILES): CCCNC[C@]1(O)[C@H](C)O[C@@H](O[C@H]2[C@H](C)[C@@H](O[C@@H]3O[C@H](C)C[C@H](NC)[C@H]3Oc3cc(OC)c(OC)c(OC)c3)[C@](C)(O)C[C@@H](C)CN[C@H](C)[C@@H](O)[C@](C)(O)[C@@H](CC)OC(=O)[C@@H]2C)C[C@@]1(C)OC [Example E-11]
IL-1ß OS of LPS (IL-1β): 250 µM

IC50 (TNF-α): 40 µM
Structure (SMILES): CCCNC[C@]1(O)[C@H](C)O[C@@H](O[C@H]2[C@H](C)[C@@H](O[C@@H]3O[C@H](C)C[C@H](NC)[C@H]3Oc3ccc(OCC)cc3)[C@](C)(O)C[C@@H](C)CN[C@H](C)[C@@H](O)[C@](C)(O)[C@@H](CC)OC(=O)[C@@H]2C)C[C@@]1(C)OC [Example E-12]
IL-1ß OS of LPS (IL-1β): 40 µM

IC50 (TNF-α): 65 µM
Structure (SMILES): CCCNC[C@]1(O)[C@H](C)O[C@@H](O[C@H]2[C@H](C)[C@@H](O[C@@H]3O[C@H](C)C[C@H](N(C)C)[C@H]3Oc3cnc(OC)nc3)[C@](C)(O)C[C@@H](C)CN[C@H](C)[C@@H](O)[C@](C)(O)[C@@H](CC)OC(=O)[C@@H]2C)C[C@@]1(C)OC [Example E-27]
IL-1ß OS of LPS (IL-1β): 100 µM

IC50 (TNF-α): 16 µM
Structure (SMILES): CCCNC[C@]1(O)[C@H](C)O[C@@H](O[C@H]2[C@H](C)[C@@H](O[C@@H]3O[C@H](C)C[C@H](N(C)C)[C@H]3Oc3ccc(OC)cc3)[C@](C)(O)C[C@@H](C)CN[C@H](C)[C@@H](O)[C@](C)(O)[C@@H](CC)OC(=O)[C@@H]2C)C[C@@]1(C)OC [Example E-43]
IL-1ß OS of LPS (IL-1β): 40 µM

IC50 (TNF-α): 13 µM
Structure (SMILES): CCCNC[C@]1(O)[C@H](C)O[C@@H](O[C@H]2[C@H](C)[C@@H](O[C@@H]3O[C@H](C)C[C@H](N(C)C)[C@H]3Oc3ccc(F)cc3)[C@](C)(O)C[C@@H](C)CN[C@H](C)[C@@H](O)[C@](C)(O)[C@@H](CC)OC(=O)[C@@H]2C)C[C@@]1(C)OC [Example E-48]
IL-1ß OS of LPS (IL-1β): 40 µM

IC50 (IL-6): 18 µM and 19 µM
Structure (SMILES): CC[C@H]1OC(=O)[C@H](C)[C@@H](O[C@H]2C[C@@](C)(OC)[C@](O)(CNCC3CC3)[C@H](C)O2)[C@H](C)[C@@H](O[C@@H]2O[C@H](C)C[C@H](N(C)C)[C@H]2Oc2ccccc2)[C@](C)(O)C[C@@H](C)CN[C@H](C)[C@@H](O)[C@]1(C)O [Example E-87]
IL-1ß OS of LPS (IL-1β): 16 µM and 26 µM

IC50 (TNF-α): 30 µM
Structure (SMILES): CCCNC[C@]1(O)[C@H](C)O[C@@H](O[C@H]2[C@H](C)[C@@H](O[C@@H]3O[C@H](C)C[C@H](NC)[C@H]3Oc3cccc(OC)c3)[C@](C)(O)C[C@@H](C)CN[C@H](C)[C@@H](O)[C@](C)(O)[C@@H](CC)OC(=O)[C@@H]2C)C[C@@]1(C)OC [Example E-94]
IL-1ß OS of LPS (IL-1β): 40 µM

IC50 (TNF-α): 14 µM
Structure (SMILES): CC[C@H]1OC(=O)[C@H](C)[C@@H](O[C@H]2C[C@@](C)(OC)[C@](O)(CNC3CCC3)[C@H](C)O2)[C@H](C)[C@@H](O[C@@H]2O[C@H](C)C[C@H](NC)[C@H]2Oc2ccccc2)[C@](C)(O)C[C@@H](C)CN[C@H](C)[C@@H](O)[C@]1(C)O [Example E-126]
IL-1ß OS of LPS (IL-1β): 40 µM

IC50 (TNF-α): 75 µM
Structure (SMILES): CC[C@H]1OC(=O)[C@H](C)[C@@H](O[C@H]2C[C@@](C)(OC)[C@](O)(CNCCN(C)C)[C@H](C)O2)[C@H](C)[C@@H](O[C@@H]2O[C@H](C)C[C@H](NC)[C@H]2Oc2ccccc2)[C@](C)(O)C[C@@H](C)CN[C@H](C)[C@@H](O)[C@]1(C)O [Example E-129]
IL-1ß OS of LPS (IL-1β): 250 µM

IC50 (TNF-α): 5 µM
Structure (SMILES): CC[C@H]1OC(=O)[C@H](C)[C@@H](O[C@H]2C[C@@](C)(OC)[C@](O)(CNn3cccn3)[C@H](C)O2)[C@H](C)[C@@H](O[C@@H]2O[C@H](C)C[C@H](NC)[C@H]2Oc2ccccc2)[C@](C)(O)C[C@@H](C)CN[C@H](C)[C@@H](O)[C@]1(C)O [Example E-139]
IL-1ß OS of LPS (IL-1β): 6 µM
